Test results: the supplement of paper PMC11208160

Assay: recombinant barcode read abundance after kanamycin selection (control-corrected) (log10(CPM+1)); higher = more efficient recombination; sequences stand for … in AGTGCAGAGAAAATCGGCCAGTTTTCTCTGCCTGCAGTCCGCATGCCGT…ATTTATGCAGCGGACTGCCTTTCTCCCAAAGTGATAAACCGGACAGTATCATGGACCGGTTTTCCCGGTAATCCGTATTTGCAAGGTTGGTTTCACT; site = the 11-nt target
How it was run: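 Each value is log10(CPM+1). It describes recombination efficiency, taken as averaged, control-corrected counts per million of barcodes at recombinant junctions. The pooled E. coli library paired targets with IS621 bridge RNA target-binding loops, was co-electroporated with a donor plasmid, and was plated twice on chloramphenicol/ampicillin LB agar (control) and twice on chloramphenicol/ampicillin/kanamycin containing 0.1 mM IPTG.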

Sequence	recombinant barcode read abundance (log10)
CATATTAACTGGGTTCTAACCTGTTGCCTAG [CATATTACTAG_LTGcore_AC_RTGcore_CT] (site CATATTACTAG) (LTG core: AC, RTG core: CT)	0.441
CATATTACCTGGGTTCTAACCTGTTGCCTAG [CATATTACTAG_LTGcore_CC_RTGcore_CT] (site CATATTACTAG) (LTG core: CC, RTG core: CT)	0.0888
CATATTACTTGGGTTCTAACCTGTTGCCTCC [CATATTACTAG_LTGcore_CT_RTGcore_GG] (site CATATTACTAG) (LTG core: CT, RTG core: GG)	0.2
CATATTACTTGGGTTCTAACCTGTTGCCTTA [CATATTACTAG_LTGcore_CT_RTGcore_TA] (site CATATTACTAG) (LTG core: CT, RTG core: TA)	0.12
CATATTACTTGGGTTCTAACCTGTTGCCTTG [CATATTACTAG_LTGcore_CT_RTGcore_CA] (site CATATTACTAG) (LTG core: CT, RTG core: CA)	0.214
CATATTAGATGGGTTCTAACCTGTTGCCTAG [CATATTACTAG_LTGcore_GA_RTGcore_CT] (site CATATTACTAG) (LTG core: GA, RTG core: CT)	0.239
CGAGCCCAATGGGTTCTAACCTGTTGCTGTT [CGAGCCCCTCA_LTGcore_AA_RTGcore_AA] (site CGAGCCCCTCA) (LTG core: AA, RTG core: AA)	0.0507
CGAGCCCCTTGGGTTCTAACCTGTTGCTGAT [CGAGCCCCTCA_LTGcore_CT_RTGcore_AT] (site CGAGCCCCTCA) (LTG core: CT, RTG core: AT)	0.29
CGAGCCCCTTGGGTTCTAACCTGTTGCTGCT [CGAGCCCCTCA_LTGcore_CT_RTGcore_AG] (site CGAGCCCCTCA) (LTG core: CT, RTG core: AG)	0.203
CGAGCCCCTTGGGTTCTAACCTGTTGCTGGT [CGAGCCCCTCA_LTGcore_CT_RTGcore_AC] (site CGAGCCCCTCA) (LTG core: CT, RTG core: AC)	1.21
CGAGCCCTTTGGGTTCTAACCTGTTGCTGAG [CGAGCCCCTCA_LTGcore_TT_RTGcore_CT] (site CGAGCCCCTCA) (LTG core: TT, RTG core: CT)	0.048
CGCGCCCAGTGGGTTCTAACCTGTTGCGGCT [CGCGCCCCTCC_LTGcore_AG_RTGcore_AG] (site CGCGCCCCTCC) (LTG core: AG, RTG core: AG)	0.0334
CGCGCCCATTGGGTTCTAACCTGTTGCGGAG [CGCGCCCCTCC_LTGcore_AT_RTGcore_CT] (site CGCGCCCCTCC) (LTG core: AT, RTG core: CT)	0.0641
CGCGCCCCTTGGGTTCTAACCTGTTGCGGAG [CGCGCCCCTCC_LTGcore_CT_RTGcore_CT] (site CGCGCCCCTCC) (LTG core: CT, RTG core: CT)	0.131
CGCGCCCCTTGGGTTCTAACCTGTTGCGGCA [CGCGCCCCTCC_LTGcore_CT_RTGcore_TG] (site CGCGCCCCTCC) (LTG core: CT, RTG core: TG)	0
CGCGCCCCTTGGGTTCTAACCTGTTGCGGGC [CGCGCCCCTCC_LTGcore_CT_RTGcore_GC] (site CGCGCCCCTCC) (LTG core: CT, RTG core: GC)	0.592
CGCGCCCCTTGGGTTCTAACCTGTTGCGGTA [CGCGCCCCTCC_LTGcore_CT_RTGcore_TA] (site CGCGCCCCTCC) (LTG core: CT, RTG core: TA)	0.602

Sequence	recombinant barcode read abundance (log10)
CGCGCCCGATGGGTTCTAACCTGTTGCGGTC [CGCGCCCCTCC_LTGcore_GA_RTGcore_GA] (site CGCGCCCCTCC) (LTG core: GA, RTG core: GA)	0.158
CGCGCCCGGTGGGTTCTAACCTGTTGCGGAG [CGCGCCCCTCC_LTGcore_GG_RTGcore_CT] (site CGCGCCCCTCC) (LTG core: GG, RTG core: CT)	0.557
CGCGCCCTATGGGTTCTAACCTGTTGCGGAG [CGCGCCCCTCC_LTGcore_TA_RTGcore_CT] (site CGCGCCCCTCC) (LTG core: TA, RTG core: CT)	0.334
CGCGCCCTTTGGGTTCTAACCTGTTGCGGAG [CGCGCCCCTCC_LTGcore_TT_RTGcore_CT] (site CGCGCCCCTCC) (LTG core: TT, RTG core: CT)	0.127
CGGTCCCACTGGGTTCTAACCTGTTGCCAGT [CGGTCCCCTTG_LTGcore_AC_RTGcore_AC] (site CGGTCCCCTTG) (LTG core: AC, RTG core: AC)	0.19
CGGTCCCAGTGGGTTCTAACCTGTTGCCAAG [CGGTCCCCTTG_LTGcore_AG_RTGcore_CT] (site CGGTCCCCTTG) (LTG core: AG, RTG core: CT)	0.0476
CGGTCCCATTGGGTTCTAACCTGTTGCCAAG [CGGTCCCCTTG_LTGcore_AT_RTGcore_CT] (site CGGTCCCCTTG) (LTG core: AT, RTG core: CT)	1.07
CGGTCCCCCTGGGTTCTAACCTGTTGCCAAG [CGGTCCCCTTG_LTGcore_CC_RTGcore_CT] (site CGGTCCCCTTG) (LTG core: CC, RTG core: CT)	0.189
CGGTCCCCTTGGGTTCTAACCTGTTGCCATG [CGGTCCCCTTG_LTGcore_CT_RTGcore_CA] (site CGGTCCCCTTG) (LTG core: CT, RTG core: CA)	1.6
CGGTCCCGTTGGGTTCTAACCTGTTGCCAAC [CGGTCCCCTTG_LTGcore_GT_RTGcore_GT] (site CGGTCCCCTTG) (LTG core: GT, RTG core: GT)	0.229
CGGTCCCTCTGGGTTCTAACCTGTTGCCAAG [CGGTCCCCTTG_LTGcore_TC_RTGcore_CT] (site CGGTCCCCTTG) (LTG core: TC, RTG core: CT)	0.355
CGGTCCCTCTGGGTTCTAACCTGTTGCCAGA [CGGTCCCCTTG_LTGcore_TC_RTGcore_TC] (site CGGTCCCCTTG) (LTG core: TC, RTG core: TC)	0.174
CGGTCCCTGTGGGTTCTAACCTGTTGCCACA [CGGTCCCCTTG_LTGcore_TG_RTGcore_TG] (site CGGTCCCCTTG) (LTG core: TG, RTG core: TG)	0.175
CGGTCCCTTTGGGTTCTAACCTGTTGCCAAG [CGGTCCCCTTG_LTGcore_TT_RTGcore_CT] (site CGGTCCCCTTG) (LTG core: TT, RTG core: CT)	0.0132
GAGCCCACTTGGGTTCTAACCTGTTGCCTAT [GAGCCCACTAG_LTGcore_CT_RTGcore_AT] (site GAGCCCACTAG) (LTG core: CT, RTG core: AT)	0.41
GAGCCCAGCTGGGTTCTAACCTGTTGCCTGC [GAGCCCACTAG_LTGcore_GC_RTGcore_GC] (site GAGCCCACTAG) (LTG core: GC, RTG core: GC)	0.0674
GAGCCCAGGTGGGTTCTAACCTGTTGCCTAG [GAGCCCACTAG_LTGcore_GG_RTGcore_CT] (site GAGCCCACTAG) (LTG core: GG, RTG core: CT)	0.181
